Literature values in US20140080711A1, “SUSPENSION OF PARTICLES COMPRISING CYCLOPROPENE COMPLEXES DISPERSED IN A RESIN MATRIX” (AgroFresh Inc., priority 2012, published 2014).

Test system: ethylene receptors

CC1=CC1 [Sample 1-MCP, 1-methylcyclopropene]
affinity for the receptor relative to that of ethylene: approximately 10 times
